{
  "source": "patent US11465987B2",
  "about": "“Compounds for treatment of cancer” (ONCTERNAL THERAPEUTICS, INC., priority 2012, dated 2022)",
  "key": {"Bovine brain tubulin": {"tested_on": "Bovine brain tubulin", "assay": "In vitro tubulin polymerization assay (bovine brain tubulin)", "format": "biochemical", "settings": "10 μM", "description": "The spectrophotometer was maintained at 37° C. for tubulin polymerization."}, "[1]": {"settings": "ICR, mouse, in vivo, ip"}, "[2]": {"assay": "Rotarod test (in vivo neurotoxicity)", "set-up": "species or system mouse", "settings": "ICR mice, i.p. daily; 1h 5 or 15 mg/kg, vinblastine 0.5 mg/kg", "description": "ICR mice received training three times a day for two days to enable them to stay on the rotating rod for >120 seconds at 12 rpm. Mice were then randomized by the length of time that they could stay on the rotating rod and divided into 7-8 mice per group. […] The rotarod test was performed twice a week. […] The rod speed was increased from […] to 40 rpm over a period of 5 min. Performance was measured as the length of time that a mouse could stay on the rotating rod."}, "PC-3 xenograft": {"tested_on": "PC-3 xenograft", "assay": "In vivo PC-3 prostate tumor xenograft"}, "[3]": {"tested_on": "PC-3 human prostate cancer cell line", "assay": "cells", "settings": "Homo sapiens", "source_text": "(§1) Cells were stained with SRB solution."}, "[4]": {"tested_on": "tubulin (colchicine, vinblastine and paclitaxel binding sites)", "assay": "MS competition binding assay", "settings": "competitive mass binding assay", "source_text": "Each reaction was run in triplicate."}, "in vivo": {"assay": "in vivo", "settings": "male, ICR, mouse, plasma, iv, 15 mg/kg"}, "[5]": {"tested_on": "NCI/ADR-RES (P-gp over-expressing resistant line of OVCAR-8)", "assay": "Cytotoxicity (SRB) assay, NCI/ADR-RES", "format": "cell-based, human", "settings": "NCI/ADR-RES versus OVCAR-8"}, "PC-3 cells [6]": {"tested_on": "PC-3 cells", "assay": "Apoptosis detection by ELISA (cytoplasmic DNA-histone complexes), PC-3", "format": "cell-based, human", "settings": "PC-3 and A375 cells, 24 h", "source_text": "Quantification of the Enrichment of Mono- and oligonucleosomes in the cytoplasm was used to determine the ability of the compounds to induce apoptosis (cell death detection ELISA PLUS, Roche, Germany) following the manufacturer's instructions."}, "[7]": {"tested_on": "melanoma and prostate cancer cell lines", "assay": "Antiproliferative activity summarised over the cell line panel (range or average)", "format": "cell-based", "settings": "read-out: IC50 (range over tested cell lines)"}, "[8]": {"assay": "Aqueous solubility, Multiscreen Solubility Filter Plate, PBS pH 7.4"}, "[9]": {"tested_on": "LNCaP human prostate cancer cell line", "assay": "Cytotoxicity (SRB) assay, LNCaP", "format": "cell-based", "settings": "Homo sapiens, LNCaP, SRB assay, prostate cancer LNCaP; read-out: IC50 LNCaP", "source_text": "as §1"}, "[10]": {"tested_on": "B16-F1 mouse melanoma cell line", "assay": "Cytotoxicity (SRB) assay, B16-F1", "format": "cell-based", "settings": "Mus musculus, B16-F1, SRB assay, mouse melanoma B16-F1; read-out: IC50 B16-F1"}, "[11]": {"tested_on": "PPC-1 human prostate cancer cell line", "assay": "Cytotoxicity (SRB) assay, PPC-1", "format": "cell-based", "settings": "Homo sapiens, PPC-1, SRB assay, prostate cancer PPC-1; read-out: IC50 PPC-1", "source_text": "as §1"}, "[12]": {"tested_on": "DU 145 human prostate cancer cell line", "assay": "Cytotoxicity (SRB) assay, DU 145", "format": "cell-based", "settings": "Homo sapiens, DU-145, SRB assay, prostate cancer DU 145; read-out: IC50 DU 145", "source_text": "as §1"}, "[13]": {"assay": "Pharmacokinetic study in Sprague-Dawley rats", "settings": "rat"}, "[14]": {"tested_on": "A375 human melanoma cell line", "assay": "Cytotoxicity (SRB) assay, A375", "format": "cell-based", "settings": "Homo sapiens, A-375, SRB assay, human melanoma A375; read-out: IC50 A375"}, "PC-3 cells [15]": {"tested_on": "PC-3 cells", "assay": "Cell cycle analysis (PI staining, FACS), PC-3", "format": "cell-based", "settings": "Homo sapiens, read-out: G2M phase arrest EC50", "description": "Cell cycle distribution was determined by propidium iodide (PI) staining. Treated cells were washed with PBS and fixed with 70% ice-cold ethanol overnight. Fixed cells were then stained with 20 μg/mL of PI in the presence of RNase A (300 μg/mL) at 37° C. for 30 min. Cell cycle distribution was analyzed by fluorescence-activated cell sorting (FACS) analysis core services at the University of Tennessee Health Science Center, TN.\nFlow cytometry was performed to study the effects of the compounds on cell cycle distribution. […] Cellular DNA was stained with 100 μg/mL propidium iodide and 100 μg/mL RNase A in PBS and flow cytometry was performed to determine the cell cycle distribution of the cells."}, "[16]": {"tested_on": "T1, tubulin colchicine binding site", "T1 construct": "[…]", "assay": "[3H]-colchicine competition-binding scintillation proximity assay", "settings": "SPA, 0.03-100 μM"}, "WM-164 melanoma cells": {"tested_on": "WM-164 melanoma cells", "assay": "Microtubule imaging (immunofluorescence)", "format": "cell-based, human", "settings": "WM-164 cells, 18 h", "source_text": "Primary antibody for tubulin and fluorescence-labeled secondary antibody were subsequently added to the cells. Cell nuclei were stained by DAPI. Whole Cell Stain Green was also applied to all cells. All images were acquired with an Olympus IX71 inverted fluorescence microscope (Olympus Corp., Tokyo, Japan) with overlays from separate images of tubulin (red), nuclei (blue), and whole cells (green)."}, "[17]": {"tested_on": "HUVEC (Human Umbilical Vein Endothelial Cells)", "assay": "Endothelial cell growth inhibition (SRB)", "format": "cell-based", "settings": "HUVEC vs prostate cancer cells"}, "[18]": {"tested_on": "confluent HUVEC monolayers", "assay": "Endothelial monolayer permeability assay", "settings": "FITC-dextran leakage, 1, 2, 4 h"}, "[19]": {"tested_on": "HUVEC capillary tube formation on Matrigel", "assay": "Capillary formation assay", "format": "cell-based, human", "settings": "at toxic concentration"}, "[20]": {"settings": "read-out: IC50 PC-3, SRB assay, prostate cancer PC-3"}, "[21]": {"settings": "read-out: IC50 ± SEM, PC-3, Table 21, n = 3"}, "[22]": {"settings": "IV, 1h and 2r […], 5Ha and 5Hc 5 mg/kg"}},
  "note": "Where two headings read alike, the source gives them in different places.",
  "data": [
    {"smiles": "COc1cc(C(=O)c2csc(-c3ccccc3)n2)cc(OC)c1OC", "note": "[1h, (2-Phenyl-thiazol-4-yl)-(3,4,5-trimethoxy-phenyl)-methanone]", "values": [
      {"measurement": "inhibition of tubulin polymerization", "setting": "Bovine brain tubulin; absorbance 340 nm over 15 min", "result": 90, "unit": "%"},
      {"measurement": "inhibition of tubulin polymerization", "setting": "Bovine brain tubulin; after 20 min incubation, vs vehicle", "result": 47, "unit": "%"},
      {"measurement": "dose not causing greater than 10% loss of body weight", "setting": "[1]", "result": "up to 30 mg/kg"},
      {"measurement": "rotarod performance in words", "setting": "[2]", "result": "no significant difference"},
      {"measurement": "% T/C", "setting": "PC-3 xenograft; PC-3, 5 mg/kg i.p.", "result": 29, "unit": "%"},
      {"measurement": "% T/C", "setting": "PC-3 xenograft; PC-3, 15 mg/kg i.p.", "result": 4, "unit": "%"},
      {"measurement": "mice that lost more than 15% body weight", "setting": "PC-3 xenograft; PC-3 xenograft, 15 mg/kg i.p.", "result": "1 of 8"},
      {"measurement": "IC50", "setting": "[3]; [20]", "result": "29.1 ± 1.1", "unit": "nM"},
      {"measurement": "IC50", "setting": "[3]; read-out: IC50 in PC3, Table 16B", "result": 21, "unit": "nM"},
      {"measurement": "IC50", "setting": "[3]; [21]", "result": "21 ± 1", "unit": "nM"},
      {"measurement": "competition for tubulin binding sites in words", "setting": "[4]", "result": "specifically competed with colchicine binding to tubulin"}
    ]},
    {"smiles": "COc1cc(C(=O)c2csc(-c3ccc(O)cc3)n2)cc(OC)c1OC", "note": "[2l, (2-(4-Hydroxyphenyl)thiazol-4-yl)(3,4,5-trimethoxyphenyl)methanone]", "values": [
      {"measurement": "AUC", "setting": "in vivo", "result": 2600, "unit": "ng·h/mL"},
      {"measurement": "Vd", "setting": "in vivo", "result": 16.5, "unit": "L/kg"},
      {"measurement": "clearance", "setting": "in vivo", "result": 90, "unit": "mL/min/kg"},
      {"measurement": "half-life", "setting": "in vivo", "result": 740, "unit": "min"},
      {"measurement": "Resistance factor", "setting": "[5]", "result": 0.4},
      {"measurement": "concentration inducing apoptosis", "setting": "PC-3 cells [6]", "result": "greater than or equal to 200 nM"},
      {"measurement": "% T/C", "setting": "PC-3 xenograft; PC-3, 50 mg/kg i.p.", "result": 34, "unit": "%"},
      {"measurement": "% T/C", "setting": "PC-3 xenograft; Prostate (PC-3) xenograft, 50 mg/kg i.p.", "result": 34, "unit": "%"},
      {"measurement": "IC50", "setting": "[3]; [20]", "result": 87, "unit": "nM"},
      {"measurement": "IC50", "setting": "[3]; [21]", "result": "87 ± 5", "unit": "nM"},
      {"measurement": "IC50", "setting": "[7]", "result": "76 to 116", "unit": "nM"}
    ]},
    {"smiles": "COc1cc(C(=O)c2csc(-c3ccc(CN)cc3)n2)cc(OC)c1OC.Cl", "note": "[2r, (2-(4-(Aminomethyl)phenyl)thiazol-4-yl)(3,4,5-trimethoxyphenyl)methanone hydrochloride]", "values": [
      {"measurement": "increase of solubility", "setting": "[8]; HCl salt, PBS", "result": "over 35 fold"},
      {"measurement": "aqueous solubility in PBS", "setting": "[8]; PBS pH 7.4", "result": "over 35 μg/mL"},
      {"measurement": "IC50", "setting": "[9]", "result": 13, "unit": "nM"},
      {"measurement": "IC50", "setting": "[10]", "result": "38 ± 11", "unit": "nM"},
      {"measurement": "IC50", "setting": "[11]", "result": 34, "unit": "nM"},
      {"measurement": "IC50", "setting": "[3]; [20]", "result": 80, "unit": "nM"},
      {"measurement": "IC50", "setting": "[7]", "result": "13 to 80", "unit": "nM"},
      {"measurement": "IC50", "setting": "[12]", "result": 25, "unit": "nM"},
      {"measurement": "F, percent oral bioavailability", "setting": "[13]", "result": 0.2, "unit": "%"},
      {"measurement": "CL, systemic clearance", "setting": "[13]; [22]", "result": "22 ± 13", "unit": "mL/min/kg"},
      {"measurement": "Vss, volume of distribution following intravenous dosing", "setting": "[13]; [22]", "result": "0.33 ± 0.25", "unit": "L/kg"},
      {"measurement": "Cmax, PO", "setting": "[13]; PO, 1h, 5Ha, 5Hc 10 mg/kg, 2r 4 mg/kg", "result": "3794 ± 1580", "unit": "ng/mL"},
      {"measurement": "IC50", "setting": "[14]", "result": "41 ± 13", "unit": "nM"}
    ]},
    {"smiles": "COc1cc(-c2nccc3ccc(-c4ccc5[nH]ccc5c4)cc23)cc(OC)c1OC", "note": "[6a]", "values": [
      {"measurement": "EC50", "setting": "PC-3 cells [15]", "result": 53.4, "unit": "nM"},
      {"measurement": "IC50", "setting": "[3]; read-out: IC50, PC-3, Table 7", "result": "64.4 ± 12.2", "unit": "nM"}
    ]},
    {"smiles": "c1cc2ccc(-c3ccc4[nH]ccc4c3)cc2c(-c2ccc3[nH]ccc3c2)n1", "note": "[6b, 1,7-Bis-(1H-indol-5-yl)-isoquinoline]", "values": [
      {"measurement": "EC50", "setting": "PC-3 cells [15]", "result": 91.9, "unit": "nM"}
    ]},
    {"smiles": "COc1cc(C(=O)c2c[nH]c(-c3ccc(C)cc3)n2)cc(OC)c1OC", "note": "[12da, (2-(p-tolyl)-1H-imidazol-4-yl)(3,4,5-trimethoxyphenyl)methanone]", "values": [
      {"measurement": "colchicine site binding in words", "setting": "[16]", "result": "highest binding affinity"},
      {"measurement": "effect on microtubules in words", "setting": "WM-164 melanoma cells", "result": "microtubule fragmentation"}
    ]},
    {"smiles": "COc1cccc2c1C(=O)c1c(O)c3c(c(O)c1C2=O)C[C@@](O)(C(=O)CO)C[C@@H]3O[C@H]1C[C@H](N)[C@H](O)[C@H](C)O1", "note": "[doxorubicin]", "values": [
      {"measurement": "times more active against endothelial cells than against cancer cells", "setting": "[17]", "result": "not specific to endothelial cells"},
      {"measurement": "permeability of endothelial cell monolayer in words", "setting": "[18]", "result": "did not induce any change"},
      {"measurement": "capillary construction in words", "setting": "[19]", "result": "did not affect the capillary construction"}
    ]},
    {"smiles": "CC(=O)O[C@H]1C(=O)[C@@]2(C)[C@H]([C@H](OC(=O)c3ccccc3)[C@]3(O)C[C@H](OC(=O)[C@H](O)[C@@H](NC(=O)c4ccccc4)c4ccccc4)C(C)=C1C3(C)C)[C@]1(OC(C)=O)CO[C@@H]1C[C@@H]2O", "note": "[paclitaxel, reference compound]", "values": [
      {"measurement": "colchicine site binding in words", "setting": "[16]", "result": "only a flat line"},
      {"measurement": "effect on microtubules in words", "setting": "WM-164 melanoma cells", "result": "condensation of microtubules"}
    ]}
  ]
}
